# Measured values: patent US9643957B2, “Heterocyclic compounds having cholesterol 24-hydroxylase activity” (TAKEDA PHARMACEUTICAL COMPANY LIMITED, priority 2012, dated 2017)
# Biological target: T1, human CH24H (Homo sapiens, UniProt Q9Y6A2)
# T1 construct: Using Full-Length Mammalian Gene Collection No. 4819975 (Invitrogen) as a template; made in house; host or cells: FreeStyle 293-F cells, transient transfection with pcDNA3.1(+)/hCH24H; lysate supernatant, not purified
# Assay: Measurement of CH24H inhibitory activity (24-HC produced from [14C] cholesterol by human CH24H lysate)
# Type: biochemical
# Conditions: 1 μM test compound, [14C] cholesterol 15 μM, 37° C. for 5 hr, read-out: Inhibitory Rate in 1 μM (%)
# Procedure: The expression of human CH24H was performed using FreeStyle 293 Expression System (Invitrogen). […] After transfection, the cells were cultured at 37° C., 8% CO2 with shaking at 125 rpm for 2 days. The cells were collected by centrifugation, and suspended in a suspension buffer (100 mM potassium phosphate (pH 7.4), 0.1 mM EDTA, 1 mM DTT, 20% Glycerol). The suspended product was disrupted by a polytron homogenizer (manufactured by Kinematica), and centrifuged at 9000×g for 10 min, and the supernatant was collected. The collected supernatant was cryopreserved (−80° C.) as a human CH24H lysate standard product.
# For the measurement of CH24H inhibitory activity, using the human CH24H lysate prepared in Experimental Example 2, the amount of 24-HC produced from cholesterol by catalytic activity of CH24H was measured in the presence of a test compound, and compared with that measured in the absence of the test compound. That is, a test compound solution at various concentrations was mixed with a reaction buffer (50 mM potassium phosphate containing 0.1% BSA and Complete, EDTA-free, pH 7.4) and human CH24H lysate. Then, [^14C] cholesterol (53 mCi/mmol specific activity, 15 μM) was added, and CH24H reaction was performed at 37° C. for 5 hr. After completion of the reaction, a quenching solution consisting of chloroform/methanol/distilled water (2:2:1 v/v) was added, and the resulting 24-HC was extracted by shaking. The extract was applied to silica gel thin layer chromatography (ethyl acetate:toluene=4:6), and the obtained ^14C-24HC fraction was measured with BAS2500 (Fujifilm Corporation).
# The inhibitory rate (%) was calculated from the ratio of radioactivity in the presence of a test compound relative to the radioactivity in the absence of the test compound.
# T1 sequence (Q9Y6A2 whole entry): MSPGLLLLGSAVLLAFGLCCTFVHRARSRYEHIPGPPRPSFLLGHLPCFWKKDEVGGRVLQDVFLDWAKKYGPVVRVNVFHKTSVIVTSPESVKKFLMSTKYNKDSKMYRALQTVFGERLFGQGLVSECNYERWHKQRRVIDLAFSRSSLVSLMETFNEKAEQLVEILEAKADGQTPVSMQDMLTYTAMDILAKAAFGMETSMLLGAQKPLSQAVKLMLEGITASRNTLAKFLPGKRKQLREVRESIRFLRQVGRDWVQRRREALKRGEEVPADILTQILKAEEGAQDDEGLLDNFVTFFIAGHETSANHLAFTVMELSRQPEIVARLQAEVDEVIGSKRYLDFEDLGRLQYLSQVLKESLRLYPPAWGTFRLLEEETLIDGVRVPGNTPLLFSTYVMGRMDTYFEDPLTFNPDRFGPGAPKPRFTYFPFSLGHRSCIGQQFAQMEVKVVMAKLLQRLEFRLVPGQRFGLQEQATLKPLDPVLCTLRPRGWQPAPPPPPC
row,inhibition at 1 µM,SMILES
1,86%,"CO[C@@H]1CCN(C(=O)C2CCN(c3cncnc3-c3ccc(F)cc3)CC2)C1 [Example 304, (1-(4-(4-fluorophenyl)pyrimidin-5-yl)piperidin-4-yl)((3R)-3-methoxypyrrolidin-1-yl)methanone]"
2,90%,"N#C[C@H]1CCCN1C(=O)N1CCN(c2cncnc2-c2ccc(F)cc2)CC1 [Example 198, (2R)-1-((4-(4-(4-fluorophenyl)pyrimidin-5-yl)piperazin-1-yl)carbonyl)pyrrolidine-2-carbonitrile]"
3,84%,"O=C(C1CCN(c2cnccc2-n2cc(Cl)cn2)CC1)N1CC(F)C1 [Example 281, (1-(4-(4-chloro-1H-pyrazol-1-yl)pyridin-3-yl)piperidin-4-yl) (3-fluoroazetidin-1-yl)methanone]"
4,92%,"CNC(=O)N1CCN(c2cncnc2-c2ccccc2)CC1 [Example 177, N-methyl-4-(4-phenylpyrimidin-5-yl)piperazine-1-carboxamide]"
5,94%,"Cc1cnn(-c2ccncc2N2CCN(C(=O)N(CCF)Cc3ccc(F)cc3)CC2)c1 [Example 315, N-(4-fluorobenzyl)-N-(2-fluoroethyl)-4-(4-(4-methyl-1H-pyrazol-1-yl)pyridin-3-yl)piperazine-1-carboxamide]"
6,85%,"CN(C(=O)C1CCN(c2cncnc2-c2ccc(F)cc2)CC1)[C@H]1CCOC1 [Example 309, 1-(4-(4-fluorophenyl)pyrimidin-5-yl)-N-methyl-N-((3S)-tetrahydrofuran-3-yl)piperidine-4-carboxamide]"
7,91%,"O=C(N1CCN(c2cncnc2-c2ccccc2)CC1)N(CCF)Cc1ccccc1 [Example 314, N-benzyl-N-(2-fluoroethyl)-4-(4-phenylpyrimidin-5-yl)piperazine-1-carboxamide]"
8,81%,"CN(C(=O)C1CCN(c2cnccc2-n2cc(Cl)cn2)CC1)[C@H]1CCOC1 [Example 307, 1-(4-(4-chloro-1H-pyrazol-1-yl)pyridin-3-yl)-N-methyl-N-((3S)-tetrahydrofuran-3-yl)piperidine-4-carboxamide]"
9,85%,"Cc1cnn(-c2ccncc2N2CCC(C(=O)N(C)[C@H]3CCOC3)CC2)c1 [Example 305, N-methyl-1-(4-(4-methyl-1H-pyrazol-1-yl)pyridin-3-yl)-N-((3S)-tetrahydrofuran-3-yl)piperidine-4-carboxamide]"
10,83%,"CO[C@@H]1CCN(C(=O)C2CCN(c3cnccc3-n3cc(Cl)cn3)CC2)C1 [Example 300, (1-(4-(4-chloro-1H-pyrazol-1-yl)pyridin-3-yl)piperidin-4-yl)((3R)-3-methoxypyrrolidin-1-yl)methanone]"
11,78%,"Cc1cnn(-c2ccncc2N2CCC(C(=O)N3CC(F)C3)CC2)c1 [Example 280, (3-fluoroazetidin-1-yl)(1-(4-(4-methyl-1H-pyrazol-1-yl)pyridin-3-yl)piperidin-4-yl)methanone]"
12,83%,"CN(C(=O)C1CCN(c2cnccc2-n2cc(Cl)cn2)CC1)[C@@H]1CCOC1 [Example 308, 1-(4-(4-chloro-1H-pyrazol-1-yl)pyridin-3-yl)-N-methyl-N-((3R)-tetrahydrofuran-3-yl)piperidine-4-carboxamide]"
13,83%,"Cc1cnn(-c2ccncc2N2CCC(C(=O)N3CC[C@H](F)C3)CC2)c1 [Example 282, ((3S)-3-fluoropyrrolidin-1-yl)(1-(4-(4-methyl-1H-pyrazol-1-yl)pyridin-3-yl)piperidin-4-yl)methanone]"
14,93%,"O=C(C1CCN(c2cnccc2-c2ccccn2)CC1)N1CC(F)(F)C1 [Example 213, (1-(2,4′-bipyridin-3′-yl)piperidin-4-yl) (3,3-difluoroazetidin-1-yl)methanone]"
15,85%,"CO[C@H]1CCN(C(=O)C2CCN(c3cncnc3-c3ccc(F)cc3)CC2)C1 [Example 303, (1-(4-(4-fluorophenyl)pyrimidin-5-yl)piperidin-4-yl)((3S)-3-methoxypyrrolidin-1-yl)methanone]"
16,85%,"Cc1cnn(-c2ccncc2N2CCC(C(=O)N3CC[C@@H](F)C3)CC2)c1 [Example 283, ((3R)-3-fluoropyrrolidin-1-yl)(1-(4-(4-methyl-1H-pyrazol-1-yl)pyridin-3-yl)piperidin-4-yl)methanone]"
17,94%,"CN(C(=O)C1CCN(c2cncnc2-c2ccc(F)cc2)CC1)C1CC1 [Example 277, N-cyclopropyl-1-(4-(4-fluorophenyl)pyrimidin-5-yl)-N-methylpiperidine-4-carboxamide]"
18,93%,"O=C(C1CCN(c2cnccc2-n2cc(C3CC3)cn2)CC1)N1CC(F)C1 [Example 323, (1-(4-(4-cyclopropyl-1H-pyrazol-1-yl)pyridin-3-yl)piperidin-4-yl)(3-fluoroazetidin-1-yl)methanone]"
19,83%,"O=C(C1CCN(c2cncnc2-c2ccc(F)cc2)CC1)N1CC[C@H](F)C1 [Example 286, (1-(4-(4-fluorophenyl)pyrimidin-5-yl)piperidin-4-yl) ((3S)-3-fluoropyrrolidin-1-yl)methanone]"

# The remaining lines, values behind:
row,SMILES,inhibition at 1 µM
1,"CO[C@@H]1C[C@H](C#N)N(C(=O)C2CCN(c3cnccc3-n3cc(C)cn3)CC2)C1 [Example 138, (2R,4R)-4-methoxy-1-((1-(4-(4-methyl-1H-pyrazol-1-yl)pyridin-3-yl)piperidin-4-yl)carbonyl)pyrrolidine-2-carbonitrile]",93%
2,"Cc1nnc(-c2ccncc2N2CCC(F)(C(=O)N3CCC[C@@H]3C#N)CC2)s1 [Example 131, (2R)-1-((4-fluoro-1-(4-(5-methyl-1,3,4-thiadiazol-2-yl)pyridin-3-yl)piperidin-4-yl)carbonyl)pyrrolidine-2-carbonitrile]",87%
3,"O=C(C1CC1)N1CCN(c2cncc(F)c2-c2ccccc2)CC1 [Example 165, cyclopropyl(4-(5-fluoro-4-phenylpyridin-3-yl)piperazin-1-yl)methanone]",86%
4,"O=C(NC1CCOCC1)C1CCN(c2cnccc2-n2cc(Cl)cn2)CC1 [Example 24, 1-(4-(4-chloro-1H-pyrazol-1-yl)pyridin-3-yl)-N-(tetrahydro-2H-pyran-4-yl)piperidine-4-carboxamide]",96%
5,"NC(=O)[C@@H]1CC(F)(F)CN1C(=O)C1CCN(c2cnccc2-n2cc(Cl)cn2)CC1 [Example 117, 1-((1-(4-(4-chloro-1H-pyrazol-1-yl)pyridin-3-yl)piperidin-4-yl)carbonyl)-4,4-difluoro-L-prolinamide]",85%
6,"CCNC(=O)N1CCN(c2cncnc2-c2ccccc2)CC1 [Example 176, N-ethyl-4-(4-phenylpyrimidin-5-yl)piperazine-1-carboxamide]",82%
7,"CC1(C)CCCN1C(=O)C1CCN(c2cnccc2-n2cc(Cl)cn2)CC1 [Example 26, (1-(4-(4-chloro-1H-pyrazol-1-yl)pyridin-3-yl)piperidin-4-yl)(2,2-dimethylpyrrolidin-1-yl)methanone]",98%
8,"CNC(=O)C1CCN(c2cnccc2-n2cc(C(F)(F)F)cn2)CC1 [Example 12, N-methyl-1-(4-(4-(trifluoromethyl)-1H-pyrazol-1-yl)pyridin-3-yl)piperidine-4-carboxamide]",90%
9,"CC1CCCN1C(=O)C1CCN(c2cnccc2-n2cc(Cl)cn2)CC1 (stereo not shown) [Example 25, (1-(4-(4-chloro-1H-pyrazol-1-yl)pyridin-3-yl)piperidin-4-yl)(2-methylpyrrolidin-1-yl)methanone]",97%
10,"N#C[C@H]1CC(F)(F)CN1C(=O)C1CCN(c2cnccc2-c2ccccn2)CC1 [Example 143, (2R)-1-((1-(2,4′-bipyridin-3′-yl)piperidin-4-yl)carbonyl)-4,4-difluoropyrrolidine-2-carbonitrile]",98%
11,"Cc1ccc(-c2ccncc2N2CCN(C(=O)CC3CC3)CC2)cc1 [Example 148, 2-cyclopropyl-1-(4-(4-(4-methylphenyl)pyridin-3-yl)piperazin-1-yl)ethanone]",92%
12,"O=C(CC1CC1)N1C[C@@H]2C[C@H]1CN2c1cnccc1-c1ccccc1 [Example 161, 2-cyclopropyl-1-((1S,4S)-5-(4-phenylpyridin-3-yl)-2,5-diazabicyclo[2.2.1]hept-2-yl) ethanone]",56%
13,"CN(C(=O)C1CCN(c2cnccc2-n2cc(Cl)cn2)CC1)C1CC1 [Example 58, 1-(4-(4-chloro-1H-pyrazol-1-yl)pyridin-3-yl)-N-cyclopropyl-N-methylpiperidine-4-carboxamide]",96%
14,"O=C(OCc1ccccc1)N1CCN(c2cncnc2-c2ccccc2)CC1 [Example 169, benzyl 4-(4-phenylpyrimidin-5-yl)piperazine-1-carboxylate]",97%
15,"Cc1cnn(-c2ccncc2N2CCC(C(=O)Nc3ccccc3)CC2)c1 [Example 73, 1-(4-(4-methyl-1H-pyrazol-1-yl)pyridin-3-yl)-N-phenylpiperidine-4-carboxamide]",97%
